Data as given in patent US20060264372A1, “Process for the synchronization of ovulation for timed breeding without heat detection” (priority 2003, published 2006).

Assays:
postpartum sows = assay: Timed deslorelin injection 96 hours post-weaning and single timed insemination without estrus detection (Example 3); assay type: in vivo, swine; conditions: 50 mcg in SAIB 96 hours post-weaning
Procedure: Approximately 170 postpartum sows were randomly divided into two equal groups comprised of controls and treated. Following weaning, the controls were detected for estrus and bred following the normal standard operating procedures for the farms on which they resided. The treated sows received a 50 mcg dose of deslorelin in SAIB at 96 hours post-weaning and were bred with a single insemination 28±2 hours later with no regard to estrus detection. The sows were examined for pregnancy by ultrasound at 21 days and slaughtered around 28 days post breeding. The entire reproductive tract was removed and corpora lutea and embryos were counted.

mature postpartum sows = assay: Intravulvar deslorelin at estrus detection in mature postpartum sows, AI breeding (Example 2); assay type: in vivo, swine; conditions: per litter; 50 μg intravulvar at first estrus detection
Procedure: Sows were assigned randomly in blocks of two to either control or to be injected intravulvar with 50 mcg of deslorelin in SAIB at the time of estrus detection for sows first detected in estrus in the a.m. and 12 hours later for those first detected in estrus in the p.m. Treated animals were bred AI upon detected estrus and again 24 hours later if still in estrus. Controls received a saline injection on first detected estrus behavior estrus detection and were bred according to the farm's normal procedures. Saline sows bred at detected estrus consistent with farm sows. Deslorelin sows injected intravulvar with 1 ml (50 μg deslorelin acetate) at first estrus detection and AI, then AI again if in estrus the next day. Live piglet number 0.6> in Deslorelin versus Saline sows.

CCNC(=O)[C@@H]1CCCN1C(=O)[C@H](CCCN=C(N)N)NC(=O)[C@H](CC(C)C)NC(=O)[C@@H](Cc1c[nH]c2ccccc12)NC(=O)[C@H](Cc1ccc(O)cc1)NC(=O)[C@H](CO)NC(=O)[C@H](Cc1c[nH]c2ccccc12)NC(=O)[C@H](Cc1cnc[nH]1)NC(=O)[C@@H]1CCC(=O)N1 [Deslorelin, deslorelin]
Embryo Survival (postpartum sows): 64% | Sows Pregnant (postpartum sows; single insemination 28±2 hours later, 84 in group): 60 | Live piglet number, greater versus Saline sows (mature postpartum sows): 0.6
